Values joined by “and” are separate entries in the source; they are usually repeats but may differ in a detail not shown here. Identical values can stand only once.
Key:
[1] = Metabolite profiling, rat hepatocytes; assay type: in vitro ADME; conditions: 10 μM CPL207280, 120 min, ND = not detected
Protocol: (§1) Suspensions of cryopreserved human, rat, and monkey hepatocytes were pooled from a minimum of three individuals. All cryopreserved hepatocytes were purchased from a commercial supplier. […] The cell density was 0.5 ×10^6 viable cells/mL. The final DMSO concentration during the incubation was 0.25%. Control incubations were performed in lysed cells to reveal any non-enzymatic degradation. Two control compounds were identified in each species. Samples (50 μL) were removed from the incubation mixture at 0, 10, 20, 40, 60, and 120 min and added to methanol containing an internal standard (100 μL) to stop the reaction. The samples were centrifuged (4000 x g at 4°C for 30 min) and the supernatants at each time point were pooled for analysis by LC MS/MS using Cyprotex generic methods. Following hepatocyte stability assays, the samples were utilized for metabolite profiling. […] Metabolites were characterized using a mass spectrometer comprising Waters Xevo QT of G2-S, Acquity Binary Solvent Manager, Acquity Column Manager, and 2777 Autosampler.

[2] = Metabolite profiling, human hepatocytes; assay type: in vitro ADME; conditions: human hepatocytes, 10 μM CPL207280, 60 min; ND = not detected
Protocol: as §1

MRP4 = target: T1, MRP4 (Homo sapiens, UniProt O15439); test: Vesicular transport inhibition assay, MRP4; conditions: MRP4; reference inhibitor 150 µM;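 note: membrane vesicles with MRP4 incubated with compound and probe substrate plus 4 mM ATP, or AMP as passive-diffusion background, vesicular substrate uptake read by liquid scintillation counting; ATP 4 mM vs AMP background separates transporter uptake from diffusion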
T1 sequence (O15439 1-1325): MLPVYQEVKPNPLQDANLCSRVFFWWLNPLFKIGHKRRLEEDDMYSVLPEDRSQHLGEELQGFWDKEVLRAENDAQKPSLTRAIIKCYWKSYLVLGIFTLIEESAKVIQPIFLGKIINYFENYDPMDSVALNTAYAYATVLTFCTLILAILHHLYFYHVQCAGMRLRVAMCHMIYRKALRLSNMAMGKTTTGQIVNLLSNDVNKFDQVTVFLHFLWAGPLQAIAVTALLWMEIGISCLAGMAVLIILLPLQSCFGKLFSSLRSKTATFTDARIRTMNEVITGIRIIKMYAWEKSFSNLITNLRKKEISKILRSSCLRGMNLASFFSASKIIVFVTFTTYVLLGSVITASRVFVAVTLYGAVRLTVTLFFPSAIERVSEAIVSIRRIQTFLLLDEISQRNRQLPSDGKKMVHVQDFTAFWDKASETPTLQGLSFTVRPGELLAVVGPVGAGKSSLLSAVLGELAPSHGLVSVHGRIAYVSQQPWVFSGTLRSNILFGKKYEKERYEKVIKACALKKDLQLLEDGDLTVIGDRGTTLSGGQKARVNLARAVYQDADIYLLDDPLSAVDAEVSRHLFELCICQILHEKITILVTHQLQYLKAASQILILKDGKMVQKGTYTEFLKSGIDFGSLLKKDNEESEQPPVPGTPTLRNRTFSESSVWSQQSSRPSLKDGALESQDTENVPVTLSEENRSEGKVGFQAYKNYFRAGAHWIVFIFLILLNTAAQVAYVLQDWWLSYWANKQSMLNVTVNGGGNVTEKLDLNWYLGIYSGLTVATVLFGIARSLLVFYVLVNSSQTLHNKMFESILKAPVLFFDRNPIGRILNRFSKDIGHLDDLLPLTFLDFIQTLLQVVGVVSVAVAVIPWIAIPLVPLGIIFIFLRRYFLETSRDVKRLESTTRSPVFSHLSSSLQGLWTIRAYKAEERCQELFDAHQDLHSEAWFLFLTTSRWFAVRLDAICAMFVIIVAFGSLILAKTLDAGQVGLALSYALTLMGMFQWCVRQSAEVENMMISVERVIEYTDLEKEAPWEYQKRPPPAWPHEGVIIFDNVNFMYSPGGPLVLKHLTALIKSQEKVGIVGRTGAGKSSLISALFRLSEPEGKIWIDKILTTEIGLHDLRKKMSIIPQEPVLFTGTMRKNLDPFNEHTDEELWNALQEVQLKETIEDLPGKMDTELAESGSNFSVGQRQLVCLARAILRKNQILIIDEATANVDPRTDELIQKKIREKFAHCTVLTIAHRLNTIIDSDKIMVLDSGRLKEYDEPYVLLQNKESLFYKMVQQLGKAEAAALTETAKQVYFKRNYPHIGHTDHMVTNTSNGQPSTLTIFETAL
Protocol: (§2) In the vesicular transport inhibition assay (for BSEP, MRP) compounds were incubated with membrane vesicle preparations and the probe substrate. Incubations were carried out in the presence of 4 mM ATP or AMP to distinguish between transporter-mediated uptake and passive diffusion into the vesicles. For MRP2 and MRP3, reactions were carried out in the presence of 2 mM glutathione. Compounds were added to the reaction mixture in 0.75 μL of solvent (1% of the final incubation volume). […] Reactions were initiated by the addition of 25 μL of 12 mM MgATP (or 12 mM AMP in assay buffer as a background control) and preincubated separately. Reactions were quenched by the addition of 200 μL of ice-cold washing buffer and immediate filtration via glass fiber filters mounted on a 96-well plate (filter plate). The filters were washed (5 × 200 μL of ice-cold washing buffer), dried, and the amount of substrate inside the filtered vesicles was determined by liquid scintillation counting.

MRP3 = MRP3 (Homo sapiens, UniProt O15438); test: Vesicular transport inhibition assay, MRP3; conditions: MRP3; reference inhibitor 150 µM;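 note: membrane vesicles with radiolabelled probe substrate and 2 mM glutathione, 4 mM ATP versus AMP background control, vesicle-trapped substrate quantified by liquid scintillation counting after filtration; ATP 4 mM vs AMP background separates transporter uptake from diffusion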
Chain of MRP3 (O15438 whole entry, the tested form may be a part): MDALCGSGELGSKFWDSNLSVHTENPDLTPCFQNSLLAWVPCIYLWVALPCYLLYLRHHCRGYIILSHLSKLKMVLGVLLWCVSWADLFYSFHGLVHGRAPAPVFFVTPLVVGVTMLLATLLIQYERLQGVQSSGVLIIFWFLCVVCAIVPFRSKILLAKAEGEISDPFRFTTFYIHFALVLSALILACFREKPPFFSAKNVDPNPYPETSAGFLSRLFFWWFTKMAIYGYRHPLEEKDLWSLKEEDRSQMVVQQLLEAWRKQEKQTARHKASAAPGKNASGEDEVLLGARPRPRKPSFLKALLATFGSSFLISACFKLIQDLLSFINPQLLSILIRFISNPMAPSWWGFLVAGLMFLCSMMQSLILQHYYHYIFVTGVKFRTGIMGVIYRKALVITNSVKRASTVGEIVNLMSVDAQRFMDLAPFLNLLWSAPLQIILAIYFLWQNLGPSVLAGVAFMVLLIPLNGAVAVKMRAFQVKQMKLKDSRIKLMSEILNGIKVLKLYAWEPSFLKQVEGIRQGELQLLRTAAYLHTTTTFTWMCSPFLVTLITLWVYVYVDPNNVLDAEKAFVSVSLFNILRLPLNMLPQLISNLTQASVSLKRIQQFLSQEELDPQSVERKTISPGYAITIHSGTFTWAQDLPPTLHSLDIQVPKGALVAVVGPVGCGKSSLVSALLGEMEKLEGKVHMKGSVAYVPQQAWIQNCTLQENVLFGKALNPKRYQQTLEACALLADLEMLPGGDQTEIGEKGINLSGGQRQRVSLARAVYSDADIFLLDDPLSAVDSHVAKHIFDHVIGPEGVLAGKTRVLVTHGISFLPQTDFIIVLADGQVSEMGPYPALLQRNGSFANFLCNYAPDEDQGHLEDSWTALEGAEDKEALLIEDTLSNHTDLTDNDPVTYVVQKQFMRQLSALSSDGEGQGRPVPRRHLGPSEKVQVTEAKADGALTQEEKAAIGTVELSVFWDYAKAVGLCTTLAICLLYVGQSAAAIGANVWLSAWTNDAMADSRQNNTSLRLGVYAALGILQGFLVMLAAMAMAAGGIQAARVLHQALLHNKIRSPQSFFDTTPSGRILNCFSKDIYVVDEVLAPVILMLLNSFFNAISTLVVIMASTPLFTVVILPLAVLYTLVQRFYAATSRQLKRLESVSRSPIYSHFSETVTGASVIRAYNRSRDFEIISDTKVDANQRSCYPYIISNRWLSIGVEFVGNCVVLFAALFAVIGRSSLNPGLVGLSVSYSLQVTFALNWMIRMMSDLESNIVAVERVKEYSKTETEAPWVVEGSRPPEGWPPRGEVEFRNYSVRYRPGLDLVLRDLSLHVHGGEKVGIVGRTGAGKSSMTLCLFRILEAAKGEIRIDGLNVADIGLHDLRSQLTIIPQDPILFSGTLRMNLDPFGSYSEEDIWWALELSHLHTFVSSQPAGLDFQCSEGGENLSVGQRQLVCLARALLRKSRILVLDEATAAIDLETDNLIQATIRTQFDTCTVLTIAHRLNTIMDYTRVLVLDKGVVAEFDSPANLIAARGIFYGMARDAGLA
Protocol: as §2

Structure (SMILES)	rat % of parent at 120 min [1] [%]	human % of parent at 60 min [2] [%]	Accumulation (counts per minute; CPM) with AMP (MRP4)	Accumulation (counts per minute; CPM) with ATP (MRP4)	Accumulation (counts per minute; CPM) with AMP (MRP3)	Accumulation (counts per minute; CPM) with ATP (MRP3)
CC#CC(CC(=O)OC1OC(C(=O)O)C(O)C(O)C1O)c1ccc(OCC(C)=C(C)C)cc1 (stereo not drawn) [M15]	2.88	1.44				
CN(C)C(=O)CCSC(SCCC(=O)O)c1cccc(/C=C/c2ccc3ccc(Cl)cc3n2)c1 (stereo not drawn) [MK571]			1227 CPM and 1197 CPM	1356 CPM and 1304 CPM	193 CPM and 200 CPM and 153 CPM and 106 CPM	299 CPM and 302 CPM and 151 CPM and 183 CPM
